# In ChEMBL document CHEMBL3997811:
# Columns and labels:
# MDCK = experiment: Cytotoxicity against MDCK cells after 48 hrs by neutral red uptake assay; format: cell-based, Canis lupus familiaris; conditions: dog
# A549 = experiment: Cytotoxicity against human A549 cells after 48 hrs by neutral red uptake assay; format: cell-based; conditions: a549, 48 h
Compound,CC50 (MDCK),CC50 (A549)
OC12CC3CC(C1)CC(NCc1cc(-c4cc(Cl)sc4Cl)on1)(C3)C2,87.6 µM,
CSc1ccccc1-c1cc(CNC23CC4CC(CC(O)(C4)C2)C3)no1,59.3 µM,102 µM
Clc1cc(-c2cc(CNC34CC5CC(CC(C5)C3)C4)no2)cs1,35.6 µM,52.6 µM
Oc1ccccc1-c1cc(CNC23CC4CC(CC(C4)C2)C3)no1,73.7 µM,78.2 µM
COc1sccc1-c1cc(CNC23CC4CC(CC(C4)C2)C3)no1,30.6 µM,35.5 µM
OC12CC3CC(C1)CC(NCc1cc(-c4ccccc4Cl)on1)(C3)C2,64.1 µM,143 µM
Clc1cc(-c2cc(CNC34CC5CC(CC(C5)C3)C4)no2)c(Cl)s1,39.3 µM,61.4 µM
